The text below walks through data of patent US20260365682A1, “MODULATORS OF TNF-ALPHA ACTIVITY” (Forward Therapeutics, Inc., priority 2022, published 2026).

Where two headings read alike, the source gives them in different places. Some results are limits rather than exact numbers.

For the experiment, the target named is T1, TNF-α (Homo sapiens, UniProt P01375).
T1 construct: purchased R&D 210-TA-020/CF
In words: TNF-α Induced HEK Blue Cellular Assay (secreted alkaline phosphatase expression, QUANTI-Blue). Format: cell-based. The note with it: HEK Blue TNFα reporter cells, TNF-α 100 μg/ml, 24 hrs at 37° C., inhibition of secreted alkaline phosphatase. In outline: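 Compound was serially diluted from […] to 0.5 nM final, then incubated with 10,000 HEK Blue TNFα reporter cells per well and […] TNF-α for 24 h at 37° C. SEAP output was read by QUANTI-Blue absorbance at 620 nm. Inhibition was background-corrected against DMSO controls with and without stimulation, and IC50 was fitted with a 4-parameter logistic equation.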

T1 sequence (P01375 77-233 limits assumed): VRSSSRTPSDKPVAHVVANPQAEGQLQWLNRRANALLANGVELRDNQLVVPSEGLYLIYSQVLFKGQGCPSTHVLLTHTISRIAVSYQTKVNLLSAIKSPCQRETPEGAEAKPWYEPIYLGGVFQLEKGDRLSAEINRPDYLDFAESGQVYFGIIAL

On to `[2H]C([2H])([2H])N1C(=O)c2cccc(OC(F)F)c2[C@H]2C[C@@H]1c1nc3ccc(C#CC4CCN(C(=O)C(C)(C)O)CC4)cc3n12` [Example 186, (7R,14R)-1-(difluoromethoxy)-11-((1-(2-hydroxy-2-methylpropanoyl)piperidin-4-yl)ethynyl)-6-(methyl-d3)-6,7-dihydro-7,14-methanobenzo[f]benzo[4,5]imidazo[1,2-a][1,4]diazocin-5(14H)-one], for which the IC50 (read-out: IC50 value) is < 100 nM.

Take `[2H]C([2H])([2H])N1C(=O)c2cccc(OC(F)F)c2[C@H]2C[C@@H]1c1nc3ccc(C#CCCCC(=O)O)cc3n12` [Example 98, 6-((7R,14R)-1-(difluoromethoxy)-6-(methyl-d3)-5-oxo-5,6,7,14-tetrahydro-7,14-methanobenzo[f]benzo[4,5]imidazo[1,2-a][1,4]diazocin-11-yl)hex-5-ynoic Acid]: for the setting “read-out: IC50 value”, the IC50 was < 100 nM.

For the molecule `[2H]C([2H])([2H])N1C(=O)c2cccc(OC(F)F)c2[C@H]2C[C@@H]1c1nc3ccc(C#Cc4ncns4)cc3n12` [Example 45, (7R,14R)-11-((1,2,4-thiadiazol-5-yl)ethynyl)-1-(difluoromethoxy)-6-(methyl-d3)-6,7-dihydro-7,14-methanobenzo[f]benzo[4,5]imidazo[1,2-a][1,4]diazocin-5(14H)-one], the half-inhibitory concentration (IC50) (read-out: IC50 value) was < 100 nM.

For `[2H]C([2H])([2H])N1C(=O)c2cccc(OC(F)F)c2[C@H]2C[C@@H]1c1nc3ccc(C#CCOCC)cc3n12` [Example 43, (7R,14R)-1-(difluoromethoxy)-11-(3-ethoxyprop-1-yn-1-yl)-6-(methyl-d3)-6,7-dihydro-7,14-methanobenzo[f]benzo[4,5]imidazo[1,2-a][1,4]diazocin-5(14H)-one], the IC50 (read-out: IC50 value) is < 100 nM.

As for `[2H]C([2H])([2H])N1C(=O)c2cccc(OC(F)F)c2[C@H]2C[C@@H]1c1nc3ccc(C#CC(O)CC(C)(C)O)cc3n12` (single isomer, unassigned) [Example 222, (7R,14R)-1-(difluoromethoxy)-11-((R or S)-3,5-dihydroxy-5-methylhex-1-yn-1-yl)-6-(methyl-d3)-6,7-dihydro-7,14-methanobenzo[f]benzo[4,5]imidazo[1,2-a][1,4]diazocin-5(14H)-one], the IC50 (read-out: IC50 value) is < 100 nM.

For the molecule `[2H]C([2H])([2H])N1C(=O)c2cccc(OC(F)F)c2[C@H]2C[C@@H]1c1nc3ccc(CCCCO)cc3n12` [Example 99, (7R,14R)-1-(difluoromethoxy)-11-(4-hydroxybutyl)-6-(methyl-d3)-6,7-dihydro-7,14-methanobenzo[f]benzo[4,5]imidazo[1,2-a][1,4]diazocin-5(14H)-one], the 50% inhibitory concentration (IC50) (read-out: IC50 value) is < 100 nM.

On to `[2H]C([2H])([2H])N1C(=O)c2cccc(OC(F)F)c2[C@H]2C[C@@H]1c1nc3ccc(C#CCNC(=O)C4CC4)cc3n12` [Example 171, N-(3-((7R,14R)-1-(difluoromethoxy)-6-(methyl-d3)-5-oxo-5,6,7,14-tetrahydro-7,14-methanobenzo[f]benzo[4,5]imidazo[1,2-a][1,4]diazocin-11-yl)prop-2-yn-1-yl)cyclopropanecarboxamide], for which the IC50 (read-out: IC50 value) was < 100 nM.

`[2H]C([2H])([2H])N1C(=O)c2cccc(OC(F)F)c2[C@H]2C[C@@H]1c1nc3ccc(C#CC4CCOCC4)cc3n12` [Example 48, (7R,14R)-1-(difluoromethoxy)-6-(methyl-d3)-11-((tetrahydro-2H-pyran-4-yl)ethynyl)-6,7-dihydro-7,14-methanobenzo[f]benzo[4,5]imidazo[1,2-a][1,4]diazocin-5(14H)-one]: under “read-out: IC50 value”, the IC50 is < 100 nM.

For the molecule `[2H]C([2H])([2H])N1C(=O)c2cccc(OC(F)F)c2[C@H]2C[C@@H]1c1nc3ccc(C#CC4CC(F)(F)C4)cc3n12` [Example 150, (7R,14R)-11-((3,3-difluorocyclobutyl)ethynyl)-1-(difluoromethoxy)-6-(methyl-d3)-6,7-dihydro-7,14-methanobenzo[f]benzo[4,5]imidazo[1,2-a][1,4]diazocin-5(14H)-one], the IC50 (read-out: IC50 value) is < 100 nM.

For `[2H]C([2H])([2H])N1C(=O)c2cccc(OC(F)F)c2[C@H]2C[C@@H]1c1nc3ccc(C#CC4CN(CC(F)(F)F)C4)cc3n12` [Example 124, (7R,14R)-1-(difluoromethoxy)-6-(methyl-d3)-11-((1-(2,2,2-trifluoroethyl)azetidin-3-yl)ethynyl)-6,7-dihydro-7,14-methanobenzo[f]benzo[4,5]imidazo[1,2-a][1,4]diazocin-5(14H)-one], the IC50 (read-out: IC50 value) was < 100 nM.

For the molecule `[2H]C([2H])([2H])N1C(=O)c2cccc(OC(F)F)c2[C@H]2C[C@@H]1c1nc3ccc(C#CC(=O)OC(C)C)cc3n12` [Example 38, isopropyl 3-((7R,14R)-1-(difluoromethoxy)-6-(methyl-d3)-5-oxo-5,6,7,14-tetrahydro-7,14-methanobenzo[f]benzo[4,5]imidazo[1,2-a][1,4]diazocin-11-yl)propiolate], under “IC50 value”, the IC50 was < 100 nM.

On to `[2H]C([2H])([2H])N1C(=O)c2cccc(OC(F)F)c2[C@H]2C[C@@H]1c1nc3ccc(C#CCC(O)C(C)O)cc3n12` (single isomer, unassigned) [Example 243, (7R,14R)-1-(difluoromethoxy)-11-((4R or 4S,5S or 5R)-4,5-dihydroxyhex-1-yn-1-yl)-6-(methyl-d3)-6,7-dihydro-7,14-methanobenzo[f]benzo[4,5]imidazo[1,2-a][1,4]diazocin-5(14H)-one], for which the IC50 (read-out: IC50 value) was < 100 nM.

`[2H]C([2H])([2H])N1C(=O)c2cccc(OC(F)F)c2[C@H]2C[C@@H]1c1nc3ccc(C#CC4CN(C(=O)C(C)(C)C#N)C4)cc3n12` [Example 193, 3-(3-(((7R,14R)-1-(difluoromethoxy)-6-(methyl-d3)-5-oxo-5,6,7,14-tetrahydro-7,14-methanobenzo[f]benzo[4,5]imidazo[1,2-a][1,4]diazocin-11-yl)ethynyl)azetidin-1-yl)-2,2-dimethyl-3-oxopropanenitrile]: the IC50 (read-out: IC50 value) was in the range of 100 to 1000 nM.

Take `[2H]C([2H])([2H])N1C(=O)c2cccc(OC(F)F)c2[C@H]2C[C@@H]1c1nc3ccc(C#CC4CCOC4)cc3n12` (stereo partly drawn) [Example 102, (7R,14R)-1-(difluoromethoxy)-6-(methyl-d3)-11-((tetrahydrofuran-3-yl)ethynyl)-6,7-dihydro-7,14-methanobenzo[f]benzo[4,5]imidazo[1,2-a][1,4]diazocin-5(14H)-one]: the IC50 (read-out: IC50 value) is < 100 nM.

As to `[2H]C([2H])([2H])N1C(=O)c2cccc(OC(F)F)c2[C@H]2C[C@@H]1c1nc3ccc(C#C[C@@H](C)N)cc3n12` [Example 50, (7R,14R)-11-((R)-3-aminobut-1-yn-1-yl)-1-(difluoromethoxy)-6-(methyl-d3)-6,7-dihydro-7,14-methanobenzo[f]benzo[4,5]imidazo[1,2-a][1,4]diazocin-5(14H)-one], the IC50 (read-out: IC50 value) was < 100 nM.

For the molecule `[2H]C([2H])([2H])N1C(=O)c2cccc(OC(F)F)c2[C@H]2C[C@@H]1c1nc3ccc(C#CC4CN(C(=O)C5(C)CC5)C4)cc3n12` [Example 166, (7R,14R)-1-(difluoromethoxy)-6-(methyl-d3)-11-((1-(1-methylcyclopropane-1-carbonyl)azetidin-3-yl)ethynyl)-6,7-dihydro-7,14-methanobenzo[f]benzo[4,5]imidazo[1,2-a][1,4]diazocin-5(14H)-one], where the note is “read-out: IC50 value”, the IC50 was < 100 nM.

Take `[2H]C([2H])([2H])N1C(=O)c2cccc(OC(F)F)c2[C@H]2C[C@@H]1c1nc3ccc(C#CC4CN(C)C4)cc3n12` [Example 68, (7R,14R)-1-(difluoromethoxy)-6-(methyl-d3)-11-((1-methylazetidin-3-yl)ethynyl)-6,7-dihydro-7,14-methanobenzo[f]benzo[4,5]imidazo[1,2-a][1,4]diazocin-5(14H)-one]: for the setting “read-out: IC50 value”, the IC50 was < 100 nM.

For the molecule `[2H]C([2H])([2H])N1C(=O)c2cccc(OC(F)F)c2[C@H]2C[C@@H]1c1nc3ccc(C#CC4CN(C(=O)C(C)(C)C)C4)cc3n12` [Example 125, (7R,14R)-1-(difluoromethoxy)-6-(methyl-d3)-11-((1-pivaloylazetidin-3-yl)ethynyl)-6,7-dihydro-7,14-methanobenzo[f]benzo[4,5]imidazo[1,2-a][1,4]diazocin-5(14H)-one], for the setting “read-out: IC50 value”, the IC50 was < 100 nM.

For the molecule `[2H]C([2H])([2H])N1C(=O)c2cccc(OC(F)F)c2[C@H]2C[C@@H]1c1nc3ccc(C#CC4(C)CN(CC)C4)cc3n12` [Example 206, (7R,14R)-1-(difluoromethoxy)-11-((1-ethyl-3-methylazetidin-3-yl)ethynyl)-6-(methyl-d3)-6,7-dihydro-7,14-methanobenzo[f]benzo[4,5]imidazo[1,2-a][1,4]diazocin-5(14H)-one], the half-inhibitory concentration (IC50) (read-out: IC50 value) was < 100 nM.

In the case of `[2H]C([2H])([2H])N1C(=O)c2cccc(OC(F)F)c2[C@H]2C[C@@H]1c1nc3ccc(C#CC4(C)CN(C(=O)C5(C)CC5)C4)cc3n12` [Example 165, (7R,14R)-1-(difluoromethoxy)-6-(methyl-d3)-11-((3-methyl-1-(1-methylcyclopropane-1-carbonyl)azetidin-3-yl)ethynyl)-6,7-dihydro-7,14-methanobenzo[f]benzo[4,5]imidazo[1,2-a][1,4]diazocin-5(14H)-one], under “read-out: IC50 value”, the IC50 lay within 100 to 1000 nM.

For `[2H]C([2H])([2H])N1C(=O)c2cccc(OC(F)F)c2[C@H]2C[C@@H]1c1nc3ccc(C#CCOc4ccccc4)cc3n12` [Example 79, (7R,14R)-1-(difluoromethoxy)-6-(methyl-d3)-11-(3-phenoxyprop-1-yn-1-yl)-6,7-dihydro-7,14-methanobenzo[f]benzo[4,5]imidazo[1,2-a][1,4]diazocin-5(14H)-one], the IC50 (read-out: IC50 value) lay within 100 to 1000 nM.

As for `[2H]C([2H])([2H])N1C(=O)c2cccc(OC(F)F)c2[C@H]2C[C@@H]1c1nc3ccc(C#CC4(C)CN(CCO)C4)cc3n12` [Example 164, (7R,14R)-1-(difluoromethoxy)-11-((1-(2-hydroxyethyl)-3-methylazetidin-3-yl)ethynyl)-6-(methyl-d3)-6,7-dihydro-7,14-methanobenzo[f]benzo[4,5]imidazo[1,2-a][1,4]diazocin-5(14H)-one], the IC50 (read-out: IC50 value) was in the range of 100 to 1000 nM.
